Legend:
Format in all cases: in vivo, rat
[1] = system: Ovariectomized female Wistar rats; experiment: Experiment 1: serum calcium reduction after intravaginal suppository, sucrose fatty acid ester plus citric acid versus each alone; details: 20 μg intravaginal
Experimental: To the mixture was added a commercially available base for intravaginal preparation; Witepsol S-55 (which is prepared from Witepsol E-85 so as to give a final intravaginal suppository having a melting point of 36.5° C., manufactured by Hils Co., Ltd., former Diamit Novel Co., Ltd) which was homogenized by previously warming and stirring thereof so as to give an intravaginal suppository with the total weight of 5.00 g. […] The mixture was poured into a tube (inside diameter: about 3 mm) made of teflon at about 40° C., cooled to solidify, and taken out from the tube. The solidified mixture was cut into pieces (weight: 50 mg) to give intravaginal suppositories for rats containing human calcitonin (20 μg/each). There were also obtained two kinds of intravaginal suppositories prepared by adding citric acid (50 mg) only, and prepared by adding a sucrose fatty acid ester (100 mg) only, likewise. There were obtained intravaginal suppositories containing only human calcitonin without citric acid nor a sucrose fatty acid ester, likewise, which are used as control.
(§1) An intravaginal suppository was administered into the rat's vagina, and the blood was collected periodically (2, 4 and 6 hours after administration of the test preparation).
(§2) The serum was separated, and the calcium level in the serum was determined by using a kit for determination of calcium (Calcium C Test Wako; manufactured by Wako Pure Chemical Industries, Ltd.) (n=3).

[2] = system: Ovariectomized female Wistar rats; experiment: Experiment 2: serum calcium reduction, effect of various suppository bases; details: S-970 and citric acid, 20 μg intravaginal
Experimental: as §1, §2
(§3) In the same manner as in Experiment 1, each intravaginal suppository was administered to the rat's vagina, and the blood was collected periodically (2, 4 and 6 hours after administration of intravaginal suppository), and the calcium level in the serum thereof was determined (n=4).

[3] = system: Ovariectomized female Wistar rats; experiment: Experiment 3: serum calcium reduction, effect of various sucrose fatty acid esters; details: with citric acid, 20 μg intravaginal
Experimental: as §1, §2
In the same manner, there were prepared various sucrose fatty acid esters having the same HLB value but being combined with a different fatty acid (Table B), and four kinds of intravaginal suppositories for rats were prepared by using each 100 mg of sucrose fatty acid ester.
as §3

[4] = system: Ovariectomized female Wistar rats; experiment: Experiment 4: serum calcium reduction, effect of sucrose fatty acid ester concentration; details: sucrose fatty acid ester (S-970) 2 w/w % of suppository; citric acid 100 mg per 5.00 g; 20 μg intravaginal; 2 hr
Experimental: as §1, §2
Human calcitonin (2 mg) was precisely measured, and thereto were added citric acid (100 mg) and Ryoto-Sugar Ester S-970 (50 mg, 100 mg or 400 mg), and the mixture was mixed well.
In the same manner as in Experiment 1, each intravaginal suppository was administered to the rat's vagina, and the blood was collected periodically (2 and 4 hours after administration of intravaginal suppository), and the calcium level in the serum thereof was determined (n=3).

[5] = system: Ovariectomized female Wistar rats; experiment: Experiment 5: serum calcium reduction, sucrose fatty acid ester with various organic acids; details: 20 μg intravaginal
Experimental: as §1, §2
In the same manner as in Experiment 1, each intravaginal suppository was administered to the rat's vagina, and the blood was collected periodically (2, 4 and 6 hours after administration of intravaginal suppository), and the calcium level in the serum thereof was determined (n=5).

[6] = system: Ovariectomized female Wistar rats; experiment: Experiment 6: serum calcium reduction, effect of organic acid concentration; details: pH 3.5, S-970 100 mg per 5.00 g, 20 μg intravaginal
Experimental: as §1, §2
(§4) In the same manner as in Experiment 1, each intravaginal suppository was administered to the rat's vagina, and the blood was collected periodically (2, 4 and 6 hours after administration of intravaginal suppository), and the calcium level in the serum thereof was determined (n=3).

[7] = system: Ovariectomized female Wistar rats; experiment: Experiment 7: serum calcium reduction, effect of pH of the solution in the suppository; details: citric acid and S-970, 20 μg intravaginal
Experimental: as §1, §2, §4

Substance: Human calcitonin
- Reduction rate (%) of calcium level in the serum ([1]; Control: suppository with human calcitonin only, no citric acid nor ester, 2 hr): 2.6%
- Reduction rate (%) of calcium level in the serum ([1]; Control: suppository with human calcitonin only, no citric acid nor ester, 4 hr): 2.2%
- Reduction rate (%) of calcium level in the serum ([1]; Control: suppository with human calcitonin only, no citric acid nor ester, 6 hr): 3.8%
- Reduction rate (%) of calcium level in the serum ([1]; suppository with citric acid only, 2 hr): 9.5%
- Reduction rate (%) of calcium level in the serum ([1]; suppository with citric acid only, 4 hr): 8.0%
- Reduction rate (%) of calcium level in the serum ([1]; suppository with citric acid only, 6 hr): 5.7%
- Reduction rate (%) of calcium level in the serum ([2]; base Cacao butter, 6 hr): 8.3%
- Reduction rate (%) of calcium level in the serum ([2]; base Witepsol S-55, 6 hr): 13.0%
- Reduction rate (%) of calcium level in the serum ([2]; base Witepsol W-35, 2 hr): 6.6%
- Reduction rate (%) of calcium level in the serum ([3]; Ryoto-Sugar Ester (S-570), HLB 5, stearic acid, 6 hr): 12.0%
- Reduction rate (%) of calcium level in the serum ([3]; Ryoto-Sugar Ester L-595 + L-1695 3:2, HLB 9, lauric acid, 2 hr): 11.0%
- Reduction rate (%) of calcium level in the serum ([3]; Ryoto-Sugar Ester L-595 + L-1695 3:2, HLB 9, lauric acid, 6 hr): 9.7%
- Reduction rate (%) of calcium level in the serum ([3]; Ryoto-Sugar Ester P-070 + P-1670 4:5, HLB 9, palmitic acid, 2 hr): 8.2%
- Reduction rate (%) of calcium level in the serum ([3]; Ryoto-Sugar Ester S-370 + S-1670 5:6, HLB 9, stearic acid, 2 hr): 6.9%
- Reduction rate (%) of calcium level in the serum ([3]; Ryoto-Sugar Ester S-970 1:0 (control), HLB 9, stearic acid, 2 hr (Table 4)): 6.3%
- Reduction rate (%) of calcium level in the serum ([3]; Ryoto-Sugar Ester S-970 1:0 (control), HLB 9, stearic acid, 6 hr (Table 4)): 11.0%
- Reduction rate (%) of calcium level in the serum [4]: 8.0%
- Reduction rate (%) of calcium level in the serum ([5]; organic acid Citric acid (pH 4) with Ryoto-Sugar Ester R-970, 6 hr): 8.4%
- Reduction rate (%) of calcium level in the serum ([5]; organic acid Lactic acid (pH 4) with Ryoto-Sugar Ester R-970, 2 hr): 17.0%
- Reduction rate (%) of calcium level in the serum ([5]; organic acid Lactic acid (pH 4) with Ryoto-Sugar Ester R-970, 6 hr): 5.4%
- Reduction rate (%) of calcium level in the serum ([5]; organic acid Malic acid (pH 4) with Ryoto-Sugar Ester R-970, 4 hr): 13.0%
- Reduction rate (%) of calcium level in the serum ([5]; organic acid Malic acid (pH 4) with Ryoto-Sugar Ester R-970, 6 hr): 7.0%
- Reduction rate (%) of calcium level in the serum ([5]; organic acid Tartaric acid (pH 4) with Ryoto-Sugar Ester R-970, 4 hr): 8.0%
- Reduction rate (%) of calcium level in the serum ([5]; organic acid Tartaric acid (pH 4) with Ryoto-Sugar Ester R-970, 6 hr): 3.4%
- Reduction rate (%) of calcium level in the serum ([6]; citric acid 1 w/w % of suppository, 6 hr): 9.2%
- Reduction rate (%) of calcium level in the serum ([6]; citric acid 2 w/w % of suppository, 6 hr): 8.2%
- Reduction rate (%) of calcium level in the serum ([6]; citric acid 5 w/w % of suppository, 6 hr): 7.5%
- Reduction rate (%) of calcium level in the serum ([6]; citric acid 10 w/w % of suppository, 4 hr): 19.0%
- Reduction rate (%) of calcium level in the serum ([6]; citric acid 10 w/w % of suppository, 6 hr): 5.0%
- Reduction rate (%) of calcium level in the serum ([7]; pH of the solution in suppository 3.0, 2 hr): 11.0%
- Reduction rate (%) of calcium level in the serum ([7]; pH of the solution in suppository 3.0, 4 hr): 22.0%
- Reduction rate (%) of calcium level in the serum ([7]; pH of the solution in suppository 3.0, 6 hr): 8.7%
- Reduction rate (%) of calcium level in the serum ([7]; pH of the solution in suppository 3.5, 2 hr): 9.4%
- Reduction rate (%) of calcium level in the serum ([7]; pH of the solution in suppository 3.5, 6 hr): 8.8%
- Reduction rate (%) of calcium level in the serum ([7]; pH of the solution in suppository 4.0, 2 hr): 9.4%
- Reduction rate (%) of calcium level in the serum ([7]; pH of the solution in suppository 4.5, 2 hr): 9.5%
- Reduction rate (%) of calcium level in the serum ([7]; pH of the solution in suppository 4.5, 6 hr): 9.1%
- Reduction rate (%) of calcium level in the serum ([7]; pH of the solution in suppository 5.0, 6 hr): 2.7%
- Reduction rate (%) of calcium level in the serum ([7]; pH of the solution in suppository 5.5, 2 hr): 8.1%
- Reduction rate (%) of calcium level in the serum ([7]; pH of the solution in suppository 5.5, 6 hr): 4.3%

Source: US6008189A, “Intravaginal preparation containing physiologically active peptide” (Teikoku Seiyaku Kabushiki Kaisha, priority 1993, dated 1999)
